Assay results from patent EP0468634A1, “The use of macrocyclic aminophosphonic acid complexes as imaging agents” (THE DOW CHEMICAL COMPANY, priority 1990, dated 1992).

Columns and labels:
[1] = Determination of water proton T1 relaxation time (inversion recovery NMR, 270 MHz); format: physicochemical; conditions: deoxygenated, Example 1 complex at 680 µMolar in 20% D₂O (vol/vol)
Experimental: The complex from Example 1 was deoxygenated by bubbling dry nitrogen gas through it for 20 min. The sample was then placed in a 5 mm NMR tube and placed in a 270 MHz spectrometer for determination of the water proton relaxation time.
The NMR experiment used to measure the relaxation time was the standard inversion recovery technique for measuring spin-lattice (T₁) relaxation times. In this technique the intensity of the water proton NMR resonance is measured as a function of a variable delay time between radiofrequency pulses during which the spin system relaxes toward equilibrium. The final data, which consisted of peak intensities versus delay time, was plotted and fitted to an exponential function. The characteristic time for spin magnetization to reestablish itself (T₁) is obtained from the time constant of the fitted exponential function. The value for T₁ for the complex of Example 1 was 244 mS. This compares favorably to a value of 422 mS for a Gd-DTPA, and 540 mS for Gd-DOTA when the experiment was repeated using these complexes. (The Gd-DTPA and Gd-DOTA are known commercial MRI agents.)

[2] = Biodistribution of Gd-DOTMP complex in a rat: Gd in femur by inductively coupled plasma spectroscopy; format: in vivo, Sprague Dawley rat
Experimental: A 150 g Sprague Dawley rat was injected with 6-100 µL portions of the Gd-DOTMP, prepared in Example 4, over a 4 day period. This rat was then sacrificed and one of its femur bones was removed and found to weigh 0.690 g. This bone was dissolved in 5 mL of concentrated HCl and analyzed for Gd by inductively coupled plasma spectroscopy. The amount of Gd found in the femur bone was 16.76 µg, which corresponds to 419 µg in the total rat skeleton, assuming the femur is 1/25th of the total skeleton. This corresponds to 25.5% of the injected dose going to the bone. That result compares favorably with similar work done with radioactive tracer ¹⁵³Sm where at these high levels of injected doses about 25-30% of the injected dose localizes in the bone. Thus the behavior of Sm-DOTMP and Gd-DOTMP are very similar in vivo.

[3] = Quantitative biodistribution of 159Gd tracer formulation in rat (NaI scintillation counting of tissues); format: in vivo, Sprague Dawley rat; conditions: 100 µL via tail vein, 2 hours after injection, ligand to metal molar ratio 1.5, 0.32 mg/mL
Text: Quantitative biodistributions were obtained by injecting 50-100 microliters of the composition into the rail vein of unanesthetized male Sprague Dawley rats. The rats were then placed in cages lined with absorbent paper in order to collect all urine excreted prior to sacrifice. After a given period of time, the rats were sacrificed by cervical dislocation and the various tissues dissected. The samples were then rinsed with saline, blotted dry on absorbent paper and weighed. The radioactivity in the samples was measured with a NaI scintillation counter.
A 1.45 mg sample of DOTMP, prepared by the procedure of Example B, was placed in a vial and dissolved in 760 µL of water and 5 µL of 50% (wt/wt) of NaOH. A volume of 1000 µL of Gd solution (0.3 mM Gd in O.1N HCl), which contained tracer quantities of ¹⁵⁹Gd, was placed in a separate vial and 15 µL of the DOTMP solution was added. The pH of the solution was adjusted to 7 to 8 using NaOH. The amount of Gd as a complex was determined to be > 99% by cation exchange chromatography. This formulation has a ligand to metal molar ratio of 1.5.
A Sprague Dawley rat was injected with the above prepared formulation and the biodistribution determined. The rat was allowed to acclimate for five days then injected with 100 µL of the Gd solution described above via a tail vein. The rat weighed between 150 and 200 g at the time of injection. After 2 hours the rat was killed by cervical dislocation. Tissues were taken, weighed and the amount of radioactivity in each tissue was determined by counting in a NaI scintillation counter coupled to a multichannel analyzer. The counts in each tissue were compared to the counts in 100 µL standards in order to determine the percentage of the injected dose in each tissue or organ. The ligand (DOTMP) to metal (Gd) molar ratio = 1.5.

For Gd-DOTMP [Example 1], the “T₁ (spin-lattice relaxation time of water protons)” value [1] was 244 mS, the “amount of Gd found in the femur bone” value ([2]; 150 g rat, 6-100 µL portions over a 4 day period, femur 0.690 g, ICP) was 16.76 µg and the “% of the injected dose going to the bone” value ([2]; 150 g rat, 6-100 µL portions over a 4 day period, from femur Gd) was 25.5%. The “Gd in the total rat skeleton” value ([2]; assuming the femur is 1/25th of the total skeleton) was 419 µg.
For ¹⁵⁹Gd-DOTMP [Ho-DOTMP], the “% OF INJECTED DOSE (159Gd) in Blood” value [3] was 0.08%, the “% OF INJECTED DOSE (159Gd) in Bone” value [3] was 50% and the “% OF INJECTED DOSE (159Gd) in Kidney” value [3] was 0.25%. The “% OF INJECTED DOSE (159Gd) in Liver” value [3] was 0.08%.
For `O=C([O-])CN1CCN(CC(=O)[O-])CCN(CC(=O)O)CCN(CC(=O)[O-])CC1.[Gd+3]` [Gd-DOTA], the “T₁ (spin-lattice relaxation time of water protons)” value [1] was 540 mS.
For `O=C([O-])CN(CCN(CC(=O)[O-])CC(=O)O)CCN(CC(=O)[O-])CC(=O)O.[Gd+3]` [Gd-DTPA], the “T₁ (spin-lattice relaxation time of water protons)” value [1] was 422 mS.
